Reference: US6339088B1, “Composition for treatment of external secretion disorders except hypol acrimation” (R-Tech Ueno. Ltd., priority 1999, dated 2002)

What was measured:
diabetic patient = assay: Saliva secretion in a diabetic patient after instillation of 0.3% eye drops; assay type: in vivo, human; conditions: 0.3% eye drops instilled four times a day, sixth day after start of administration
Text: [3-(4-Bromo-2-fluorobenzyl)-7-chloro-2,4-dioxo-1,2,3,4-tetrahydroquinazolin-1-yl]acetate, a compound represented by the general formula (II) having aldose reductase-inhibiting effect as an active ingredient was used for preparation of a 0.3% eye drops.
The 0.3% eye drops was instilled to a diabetic patient four times a day.

Male Sprague-Dawley rats = assay: Effect on saliva secretion in rats (filter-paper infiltration distance); assay type: in vivo, rat; conditions: 50 μL of 0.3% solution intraorally three times a day on Day 1 and 2, measured Day 3 one hour after administration
Experimental: [3-(4-Bromo-2-fluorobenzyl)-7-chloro-2,4-dioxo-1,2,3,4-tetrahydroquinazolin-1-yl]acetate, a compound represented by the general formula (II) having aldose reductase-inhibiting effect as an active ingredient was used for preparation of a 0.3% solution.
Male Sprague-Dawley rats (aged 7 weeks) were used. The rats were intraorally administered with 50 μL of the 0.3% solution or distilled water three times a day (10:00, 14:00, 18:00) on Day 1 and Day 2. On Day 3, the time upon lapse of one hour after the administration at 10:00 and 14:00, a strip of filter-paper (Schirmer Tear Production Measuring Strips: SHOWA YAKUHIN KAKO CO., LTD.) with the length of 37 mm and width of 5 mm was inserted between the lower teeth gums and the lower jaw of the rat to absorb the saliva into the filter-paper. The infiltration distance of the saliva into the filter-paper was measured every 1 minute for 5 minutes.

O=C(O)Cn1c(=O)n(Cc2ccc(Br)cc2F)c(=O)c2ccc(Cl)cc21 [formula (II), [3-(4-bromo-2-fluorobenzyl)-7-chloro-2,4-dioxo-1,2,3,4-tetrahydroquinazolin-1-yl]acetate]
saliva secretion (diabetic patient): obvious sthenia of saliva secretion
The infiltration distance of the saliva into filter-paper, mm, mean ± S.E., after 1 min. (Male Sprague-Dawley rats; after 1 min.): 8.1 ± 1.5 mm
The infiltration distance of the saliva into filter-paper, mm, mean ± S.E., after 2 min. (Male Sprague-Dawley rats; after 2 min.): 10.6 ± 1.8 mm
The infiltration distance of the saliva into filter-paper, mm, mean ± S.E., after 3 min. (Male Sprague-Dawley rats; after 3 min., * P<0.05 vs control): 12.6 ± 2.0* mm
The infiltration distance of the saliva into filter-paper, mm, mean ± S.E., after 4 min. (Male Sprague-Dawley rats; after 4 min., * P<0.05 vs control): 13.6 ± 2.1* mm
The infiltration distance of the saliva into filter-paper, mm, mean ± S.E., after 5 min. (Male Sprague-Dawley rats; after 5 min.): 14.5 ± 2.3 mm
